“And” between values parts separate entries of the source, which are not always exact repeats. Equal values may be shown once. Read-outs that look alike come from different tables or passages of the source.
What was measured:
CYP2B6 mRNA = experiment: CYP450 induction in cultured human hepatocytes, mRNA by qRT-PCR; type: cell-based; settings: for CYP2B6 induction (abstract): cultured human hepatocytes; for Basic kinetic model: R3: per FDA Guidance (2020); for EC50 at 3 days: human, cultured cryopreserved hepatocytes; for EC50 at 3 days / Basic kinetic model: Emax (fold) / EC50: ± standard error; for EC50 at 3 days / EC50: read-out: Basic kinetic model: EC50; for Fold‐change method: Fold change: highest dose tested (40 µM fenfluramine, 50 µM norfenfluramine); for Fold‐change method: % of control: percent of positive control induction of mRNA; for Basic kinetic model: Emax (fold): fit of fold‐change −1 values
Procedure: Cells were then harvested to isolate RNA, which was analyzed by quantitative reverse transcription‐polymerase chain reaction (qRT‐PCR) for induction of CYP1A2, CYP2B6, and CYP3A4 mRNA levels. Total RNA was phase extracted with TRIzol followed by purification with an RNeasy Mini Kit (Qiagen Inc., Germantown, MD). Quantitative PCR was performed in triplicate with a 7900HT Fast Real Time PCR System, an Applied Biosystems Universal Master Mix, and TaqMan® Gene Expression Assays. The quantity of target cDNA relative to control cDNA (GAPDH) was determined by the ΔΔCT method (Applied Biosystems User Bulletin #2). Relative quantitation measures the change in mRNA expression in a test sample relative to that in the control sample (i.e., DMSO). This method assumes that the efficiency of target amplification and the efficiency of endogenous control amplification are approximately equal.
mRNA assessment was conducted using a quantitative reverse transcription-polymerase chain reaction (qRT-PCR) according to the Applied Biosystems protocol. Each PCR was performed in triplicate. A Primer Mix was prepared for each Gene Expression assay. A typical Primer Mix contained TaqMan Fast Advanced Master Mix (1X), Gene Expression Assay (1X, 900 nM forward and reverse primers) and ribonuclease (RNase)-free water. The Reaction Mix was prepared by adding the Primer Mix to cDNA. A percentage of samples (no less than 10%) included NACs. […] The relative quantity of the target cDNA compared with that of the control cDNA (GAPDH) was determined by the ΔΔCt method (Applied Biosystems User Bulletin #2). Relative quantitation measures the change in mRNA expression in a test sample relative to that in a control sample (eg, dimethyl sulfoxide [DMSO]). This method assumes that the efficiency of the target amplification and the efficiency of the endogenous control amplification are approximately equal.
This software analyzes relative gene expression using the comparative Ct method (ΔΔCt), which relates the PCR signal of the target transcript to the PCR signal of the target in an untreated control. Both the treated sample and the untreated control signals are normalized to the endogenous control (GAPDH), for which expression is not affected by treatment and expression is constant throughout the tissue being tested.
The level of mRNA expression relative to the positive control was calculated as follows: […]

[1] = Plasma protein binding, Rapid Equilibrium Device; type: in vitro ADME; settings: pooled rat or dog plasma, pH 7.4, range
Procedure: In vitro plasma protein binding was then determined by using the Rapid Equilibrium Device (RED) with a molecular weight cutoff of 8 kDa (Thermo Fisher Scientific, Inc., Waltham, MA). […] The internal standard was niflumic acid. […] Protein binding was determined by adding a 300‐μL aliquot of the test sample or the control sample to the sample chamber of the RED and adding a 500‐μL aliquot of PBS (pH 7.4) to the buffer chamber. The device unit was sealed and incubated at 37°C for 4 h with gentle shaking (~750 rpm). After dialysis, three aliquots of the test samples (50 μL) were collected from both sample and buffer chambers and were mixed with 50 μL of methanol as “donor samples” and “acceptor samples,” respectively. […] A detailed description of the LC‐MS/MS process can be found in the Supplemental Material. Supernatant fractions were analyzed by LC‐MS/MS using an Acquity Ultra Performance Liquid Chromatography system with ethylene bridged hybrid (BEH) C18 columns (2.1 × 50 mm, 1.7 µm; Waters Corporation; Milford, MA) coupled to an API4000 mass spectrometer (AB Sciex). […] Samples were prepared in triplicate and were dialyzed for 4 h. […] Protein binding was calculated as follows: Proteinbindingratio%=100‐Unboundratio%, where Unboundratio%=AcceptorSampleConcentration/DonorSampleConcentration.

CYP2D6 = CYP2D6 (Homo sapiens, UniProt P10635); experiment: Direct CYP450 inhibition in human liver microsomes (dextromethorphan O-demethylation); settings: for Inhibition (%): direct inhibition, FFA up to 60 µM, nFFA up to 100 µM; for Ah (guidance term): mechanistic static model, Supplemental Table 2; for Basic model: R1: R1 = 1 + (Imax,u/Ki,u)
Procedure: Microsomes from non‐transplantable human livers were prepared and characterized as outlined previously.[25], [26] A mixed‐gender pool of 200 individual human liver microsomal samples was used. Substrate concentrations and incubation conditions for determination of the kinetic constant (S50 or Km) used to select marker substrate concentrations were previously determined.[24]
Summary data are expressed as percent of control and mean ± standard deviation (SD) or standard error of the mean (SEM), as appropriate. Individual values from inhibition studies were processed with the laboratory information management system (LIMS) Galileo v3.3 (Thermo Fisher Scientific), which was used to calculate IC50 values from a four‐parameter logistic regression applied to percent inhibition versus concentration values. […] Based on FDA guidance for metabolism‐ and transporter‐mediated DDI studies,[15] basic kinetic models for transporter inhibition, CYP450 inhibition, and CYP450 induction were employed to calculate R, R1, and R3 values, respectively, and were compared to the respective predetermined threshold values listed in the guidance document.[15] […] Plasma protein binding data were used to estimate input parameters for fraction unbound to plasma proteins in the mechanistic static model (Supplemental Table 2). The fraction absorbed was assumed to be 100%, yielding the highest possible portal concentrations. […] Assays were performed in duplicate or triplicate according to previously published reports. Statistical analysis for replicates was not possible with n = 2 sample sizes.
This LIMS utilizes the Levenberg-Marquardt algorithm to perform nonlinear regression fitting of the data to the following 4-parameter sigmoidal-logistic IC50 equation:
As percent of control values are utilized, the Min is set to 0 and the Max is set to 100 (or other values, as appropriate). […] Therefore, when an IC50 value falls outside the concentration range studied, the IC50 values are reported to be greater than the highest concentrations of test article evaluated.

OCT2 = molecular target: T1, OCT2 (Homo sapiens, UniProt O15244); experiment: Transporter inhibition, uptake of [14C]-metformin in HEK293 cells; type: in vitro ADME; settings: probe [14C]-metformin 10 μM
T1 construct: host or cells: HEK293
T1 sequence (O15244 1-555): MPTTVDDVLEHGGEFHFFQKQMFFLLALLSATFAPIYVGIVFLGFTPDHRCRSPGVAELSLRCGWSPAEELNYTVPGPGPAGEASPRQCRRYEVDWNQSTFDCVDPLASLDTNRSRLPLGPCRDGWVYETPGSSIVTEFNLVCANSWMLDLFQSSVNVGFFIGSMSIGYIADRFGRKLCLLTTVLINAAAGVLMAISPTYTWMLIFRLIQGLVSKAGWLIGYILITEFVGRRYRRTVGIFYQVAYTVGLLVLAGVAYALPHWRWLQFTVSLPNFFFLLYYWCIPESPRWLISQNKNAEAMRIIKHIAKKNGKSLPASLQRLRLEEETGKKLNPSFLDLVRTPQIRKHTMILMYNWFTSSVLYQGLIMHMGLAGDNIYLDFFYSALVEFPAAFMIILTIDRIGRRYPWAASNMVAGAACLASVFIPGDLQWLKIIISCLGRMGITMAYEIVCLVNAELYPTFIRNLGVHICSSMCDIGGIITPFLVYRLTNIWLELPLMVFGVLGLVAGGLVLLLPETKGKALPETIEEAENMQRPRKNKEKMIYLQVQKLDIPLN
From the text: Cells were then washed, lysed with scintillation cocktail, and analyzed for the probe substrate with a MicroBeta scintillation counter (PerkinElmer, Hopkinton, MA). Transcellular transporter assay conditions are described in Supplemental Table 1. Calculation of IC50 values was based on bidirectional permeability of probe substrate with and without the inhibitor in MDCKII cells expressing BCRP and in Caco‐2 cells expressing P‐gp, and transporter‐dependent uptake of probe substrate in HEK293 cells expressing all other transporters (Supplemental Table 1).
The transporter-specific uptake of the probe substrate in cells was determined by subtracting the accumulation in the control cells from the accumulation in the transporter-expressing cells.

Chain of CYP2D6 (P10635 whole entry): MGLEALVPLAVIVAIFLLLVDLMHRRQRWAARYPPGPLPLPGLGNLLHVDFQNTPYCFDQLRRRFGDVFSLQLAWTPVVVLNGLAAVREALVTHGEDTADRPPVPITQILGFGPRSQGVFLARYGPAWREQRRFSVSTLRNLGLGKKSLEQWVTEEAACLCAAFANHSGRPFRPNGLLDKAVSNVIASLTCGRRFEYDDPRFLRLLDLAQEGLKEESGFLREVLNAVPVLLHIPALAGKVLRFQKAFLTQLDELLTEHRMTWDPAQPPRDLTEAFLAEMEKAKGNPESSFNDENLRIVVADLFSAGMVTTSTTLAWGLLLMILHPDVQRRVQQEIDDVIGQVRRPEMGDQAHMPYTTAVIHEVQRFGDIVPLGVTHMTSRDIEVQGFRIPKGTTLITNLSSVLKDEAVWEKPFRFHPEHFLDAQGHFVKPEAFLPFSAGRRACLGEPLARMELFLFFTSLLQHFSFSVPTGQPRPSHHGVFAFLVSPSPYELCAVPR

SMILES: CCNC(C)Cc1cccc(C(F)(F)F)c1 (racemic) [FFA, (RS)‐ethyl(α‐methyl‐3‐trifluoromethylphenethyl)amine, reference compound]
- CYP2B6 induction (abstract) (CYP2B6 mRNA): up to 2.8 fold
- Basic kinetic model: Potential to induce (CYP2B6 mRNA; hepatocytes HC7‐8): No
- Static mechanistic model: Potential to induce (CYP2B6 mRNA; hepatocytes HC7‐8): No (AUCR <0.8 to denote induction)
- Basic kinetic model: R3 (CYP2B6 mRNA; hepatocytes HC7‐8): 0.87
- Basic kinetic model: Potential to induce (CYP2B6 mRNA; hepatocytes HC10‐8): Yes
- Static mechanistic model: Potential to induce (CYP2B6 mRNA; hepatocytes HC10‐8): No (AUCR <0.8 to denote induction)
- Basic kinetic model: R3 (CYP2B6 mRNA; hepatocytes HC10‐8): 0.77
- Basic kinetic model: Potential to induce (CYP2B6 mRNA; hepatocytes HC10‐10): Yes
- Static mechanistic model: Potential to induce (CYP2B6 mRNA; hepatocytes HC10‐10): No (AUCR <0.8 to denote induction)
- Basic kinetic model: R3 (CYP2B6 mRNA; hepatocytes HC10‐10): 0.76
- EC50 at 3 days (CYP2B6 mRNA; lot HC7-8, hepatocytes HC7‐8): 8.32 ± 2.1 µM
- EC50 at 3 days (CYP2B6 mRNA; lot HC10-8, hepatocytes HC10‐8): 13.6 ± 1.5 µM
- EC50 at 3 days (CYP2B6 mRNA; lot HC10-10, hepatocytes HC10‐10): 4.61 ± 3.3 µM
- fraction unbound at 4 h [1]: 0.378 to 0.538
- IC50 (CYP2D6): 4.7 ± 0.2 µM
- Ki (CYP2D6): 2.17 µM
- Inhibition (%) (CYP2D6; substrate dextromethorphan): 90%
- Ah (guidance term) (CYP2D6): 0.867
- Basic model: Potential for clinical inhibition (CYP2D6; substrate dextromethorphan): Yes (Potential to inhibit if R1 ≥ 1.02)
- Static mechanistic model: Potential for clinical inhibition (CYP2D6; substrate dextromethorphan): No (Potential to inhibit if AUCR ≥ 1.25)
- Basic model: R1 (CYP2D6; substrate dextromethorphan): 1.07

SMILES: CC(N)Cc1cccc(C(F)(F)F)c1.Cl (stereo not drawn) [nFFA, [1‐(3‐trifluoromethyl)phenyl]propan‐2‐amine hydrochloride]
- CYP2B6 induction (abstract) (CYP2B6 mRNA): up to 2.0 fold
- Basic kinetic model: Potential to induce (CYP2B6 mRNA; hepatocytes HC7‐8): No
- Fold‐change method: Potential to induce (CYP2B6 mRNA; hepatocytes HC7‐8): Yes
- Static mechanistic model: Potential to induce (CYP2B6 mRNA; hepatocytes HC7‐8): No (AUCR <0.8 to denote induction)
- Fold‐change method: Fold change (CYP2B6 mRNA; hepatocytes HC7‐8): 2.15 fold
- Basic kinetic model: R3 (CYP2B6 mRNA; hepatocytes HC7‐8): 0.92
- Fold‐change method: % of control (CYP2B6 mRNA; hepatocytes HC7‐8): 10.60%
- Basic kinetic model: Emax (fold) (CYP2B6 mRNA; hepatocytes HC7‐8): 1.14 ± 0.083 fold
- EC50 (CYP2B6 mRNA; hepatocytes HC7‐8): 10.8 ± 2.3 µM
- Basic kinetic model: Potential to induce (CYP2B6 mRNA; hepatocytes HC10‐8): No
- Fold‐change method: Potential to induce (CYP2B6 mRNA; hepatocytes HC10‐8): Yes
- Static mechanistic model: Potential to induce (CYP2B6 mRNA; hepatocytes HC10‐8): No (AUCR <0.8 to denote induction)
- Fold‐change method: Fold change (CYP2B6 mRNA; hepatocytes HC10‐8): 3.01 fold
- Basic kinetic model: R3 (CYP2B6 mRNA; hepatocytes HC10‐8): 0.93
- Fold‐change method: % of control (CYP2B6 mRNA; hepatocytes HC10‐8): 21.20%
- Basic kinetic model: Emax (fold) (CYP2B6 mRNA; hepatocytes HC10‐8): 2.08 ± 0.197 fold
- EC50 (CYP2B6 mRNA; hepatocytes HC10‐8): 26.4 ± 2.9 µM
- Basic kinetic model: Potential to induce (CYP2B6 mRNA; hepatocytes HC10‐10): No
- Fold‐change method: Potential to induce (CYP2B6 mRNA; hepatocytes HC10‐10): Yes
- Static mechanistic model: Potential to induce (CYP2B6 mRNA; hepatocytes HC10‐10): No (AUCR <0.8 to denote induction)
- Fold‐change method: Fold change (CYP2B6 mRNA; hepatocytes HC10‐10): 2.54 fold
- Basic kinetic model: R3 (CYP2B6 mRNA; hepatocytes HC10‐10): 0.88
- Fold‐change method: % of control (CYP2B6 mRNA; hepatocytes HC10‐10): 21.60%
- Basic kinetic model: Emax (fold) (CYP2B6 mRNA; hepatocytes HC10‐10): 1.36 ± 0.11 fold
- EC50 (CYP2B6 mRNA; hepatocytes HC10‐10): 8.81 ± 1.6 µM
- IC50 (OCT2): 5.21 µM and 5.2 µM
- IC50 (CYP2D6; direct inhibition (no preincubation), human liver microsomes, substrate dextromethorphan): 16 ± 1 µM
- Inhibition (%) (CYP2D6; substrate dextromethorphan): 82%
- Ah (guidance term) (CYP2D6): 0.988
- Ki (CYP2D6; read-out: Ki, u, IC50 divided by 2, assumes [S] = Km, adjusted for estimated unbound fraction in microsomes): 7.86 µM
- Basic model: Potential for clinical inhibition (CYP2D6; substrate dextromethorphan): No (Potential to inhibit if R1 ≥ 1.02)
- Static mechanistic model: Potential for clinical inhibition (CYP2D6; substrate dextromethorphan): No (Potential to inhibit if AUCR ≥ 1.25)
- Basic model: R1 (CYP2D6; substrate dextromethorphan): 1.01
